Measured values: paper PMC3402541, “Guanidylation and Tail Effects in Cationic Antimicrobial Lipopeptoids” (PLoS ONE, 2012)
≈ marks a conversion by molar mass, not a printed value.

Columns and labels:
[1] = system: S.aureus ATCC 29213; type: cell-based, Staphylococcus aureus; conditions: ATCC 29213, 24 h
Method: (§1) Antimicrobial activity of the purified lipopeptoids was determined without replication against a panel of clinically relevant and standard reference bacterial strains according to CLSI macrobroth standards. Stock solutions at 512 µg/mL were prepared in water, with DMSO as needed, and testing was performed in glass test tubes using Muller-Hinton broth and bacteria adjusted to 5 × 10^5 CFU/mL. Bacteria were incubated with the lipopeptoid of interest for 24 hr at 37°C prior to reading.
(§2) The bacteria Staphylococcus aureus ATCC 29213, methicillin-resistant S. aureus ATCC 33592, Staphylococcus epidermidis ATCC 14990, Enterococcus faecalis ATCC 29212, E. faecium ATCC 27270, Streptococcus pneumoniae ATCC 49619, Escherichia coli ATCC 25922, Pseudomonas aeruginosa ATCC 27853, and Klebsiella pneumoniae ATCC 13883 were acquired from the American Type Culture Collection (ATCC) and used as quality controls. The clinical strains methicillin-resistant S. epidermidis (MRSE) CAN-ICU 61589, E. coli CAN-ICU 61714, E. coli CAN-ICU 63074, P. aeruginosa CAN-ICU 62308, Stenotrophomonas maltophilia CAN-ICU 62584, Acinetobacter baumannii CAN-ICU 63169 were obtained from hospitals across Canada as part of the CAN-ICU studies, while methicillin-susceptible S. epidermidis (MSSE) 81388 was obtained from the 2008 CANWARD study.
(§3) After subculturing the relevant bacteria twice from frozen stock, in vitro activities of the antimicrobials were determined by macrobroth dilution methodology in accordance with the Clinical and Laboratory Standards Institute (CLSI) guidelines (3). The MICs were determined using glass test tubes (2 mL/tube) containing doubling antimicrobial dilutions of cation adjusted Mueller-Hinton broth inoculated to achieve a final concentration of approximately 5 x 10^5 CFU/mL, incubated in ambient air for 24 hr prior to reading. Colony counts were performed periodically to confirm inocula. The ATCC organisms […] ATCC 49619, Staphylococcus aureus ATCC 29213, Enterococcus faecalis ATCC 29212, Escherichia coli ATCC 25922, and Pseudomonas aeruginosa ATCC 27853 were used as quality control and to allow easy comparison to previously tested antimicrobials. Each test in this series was performed without replication. In our experience with cationic amphiphiles the results are accurate to within a single doubling.

[2] = system: MRSA ATCC 33592; type: cell-based, methicillin-resistant S. aureus; conditions: ATCC 33592, 24 h
Method: as §1, §2, §3

[3] = system: MSSE 81388 CANWARD 2008; type: cell-based, methicillin-susceptible S. epidermidis; conditions: 24 h
Method: as §1, §2, §3

[4] = system: MRSE CAN-ICU 61589; type: cell-based, methicillin-resistant S. epidermidis; conditions: CAN-ICU 61589, 24 h
Method: as §1, §2, §3

[5] = system: E. faecalis ATCC 29212; type: cell-based, Enterococcus faecalis; conditions: ATCC 29212, 24 h
Method: as §1, §2, §3

[6] = system: S.pneumoniae ATCC 49619; type: cell-based, Streptococcus pneumoniae; conditions: ATCC 49619, 24 h
Method: as §1, §2, §3

[7] = system: P.aeruginosa ATCC 27853; type: cell-based, Pseudomonas aeruginosa; conditions: ATCC 27853, 24 h
Method: as §1, §2, §3

[8] = system: P.aeruginosa CAN-ICU 62308; type: cell-based, Pseudomonas aeruginosa; conditions: CAN-ICU 62308, 24 h
Method: as §1, §2, §3

[9] = system: S. maltophilia CAN-ICU 62584; type: cell-based, Stenotrophomonas maltophilia; conditions: CAN-ICU 62584, 24 h
Method: as §1, §2, §3

[10] = system: A. baumannii CAN-ICU 63169; type: cell-based, Acinetobacter baumannii; conditions: CAN-ICU 63169, 24 h
Method: as §1, §2, §3

[11] = system: K.pneumoniae ATCC 13883; type: cell-based, Klebsiella pneumoniae; conditions: ATCC 13883, 24 h
Method: as §1, §2, §3

[12] = system: ovine erythrocytes; test: Haemolytic assay; type: cell-based, sheep; conditions: ovine erythrocytes in Tris buffered saline, 30 minutes, absorbance of supernatant at 540 nm
Method: Mammalian cell toxicity was determined by measuring lysis of ovine erythrocytes, a standard model for human cell toxicity. Cells were prewashed with Tris buffered saline and then incubated with a variety of lipopeptoid concentrations for 30 minutes. Following centrifugation, lysis was evaluated by testing the absorbance of the solution at 540 nm, with 0.5% NH4OH used as a positive control.
Toxicity to mammalian cells was determined using a sheep red blood cell (erythrocyte) haemolytic assay (4). Erythrocytes were washed and resuspended in Tris buffered saline prior to use, at a concentration of 1.46 - 4.5 x 10^9 cells/mL (on average 3.08 x 10^9 cells/mL). The cell suspension was diluted with varying concentrations of antimicrobials, from 50 μg/mL to 1 mg/mL and incubated for thirty minutes (final erythrocyte concentration 4.08 x 10^8 cells/mL). The samples were centrifuged following treatment and the absorbance of the supernatant was measured at 540 nm. A solution of 0.5% […] was used as a positive control, with normal buffered solution as the negative control. The toxicity was assessed as a function of percent haemolysis.

[13] = system: E.coli ATCC 25922; type: cell-based, Escherichia coli; conditions: ATCC 25922, 24 h
Method: as §1, §2, §3

[14] = system: E.coli CAN-ICU 61714; type: cell-based, Escherichia coli; conditions: CAN-ICU 61714, 24 h
Method: as §1, §2, §3

[15] = system: E.coli CAN-ICU 63074; type: cell-based, Escherichia coli; conditions: CAN-ICU 63074, 24 h
Method: as §1, §2, §3

[16] = system: E. faecium ATCC 27270; type: cell-based; conditions: ATCC 27270, 24 h
Method: as §1, §2, §3

Compound | MIC S.aureus [1] [µg/mL] | MIC S.aureus in the presence of 4% bovine serum albumin [1] [µg/mL] | MIC MRSA [2] [µg/mL] | MIC MRSA in the presence of 4% bovine serum albumin [2] [µg/mL] | MIC MSSE [3] [µg/mL] | MIC MSSE in the presence of 4% bovine serum albumin [3] [µg/mL] | MIC MRSE [4] [µg/mL] | MIC MRSE in the presence of 4% bovine serum albumin [4] [µg/mL] | MIC E. faecalis [5] [µg/mL] | MIC E. faecalis in the presence of 4% bovine serum albumin [5] [µg/mL] | MIC S.pneumoniae [6] [µg/mL] | MIC P.aeruginosa [7] [µg/mL] | MIC P.aeruginosa in the presence of 4% bovine serum albumin [7] [µg/mL] | MIC P.aeruginosa [8] [µg/mL] | MIC P.aeruginosa in the presence of 4% bovine serum albumin [8] [µg/mL] | MIC S. maltophilia [9] [µg/mL] | MIC S. maltophilia in the presence of 4% bovine serum albumin [9] [µg/mL] | MIC A. baumannii [10] [µg/mL] | MIC A. baumannii in the presence of 4% bovine serum albumin [10] [µg/mL] | MIC K.pneumoniae [11] [µg/mL] | also measured
CCCCCCCCCCCCCCCCCCCC(=O)N(CCCCNC(=N)N)CC(=O)NCC(=O)N(CCCCNC(=N)N)CC(N)=O [C20-NhargGNharg] | 16 (≈ 22.6 µM) | 512 | 16 (≈ 22.6 µM) | 512 | 8 (≈ 11.3 µM) | 256 | 8 (≈ 11.3 µM) | 256 | 16 (≈ 22.6 µM) | 512 | 256 (≈ 361 µM) | 512 (≈ 722 µM) | >512 | 256 (≈ 361 µM) | >512 | 256 (≈ 361 µM) | >512 | 128 (≈ 181 µM) | >512 | 128 (≈ 181 µM) | MIC S.pneumoniae in the presence of 4% bovine serum albumin [6]: 64 µg/mL; MIC K.pneumoniae in the presence of 4% bovine serum albumin [11]: 512 µg/mL; Percent haemolysis at 100µg/mL of compound [12]: 71.87%; MIC E.coli [13]: 256 µg/mL (≈ 361 µM); MIC E.coli in the presence of 4% bovine serum albumin [13]: 512 µg/mL; MIC E.coli [14]: 256 µg/mL (≈ 361 µM); MIC E.coli in the presence of 4% bovine serum albumin [14]: >512 µg/mL; MIC E.coli [15]: 256 µg/mL (≈ 361 µM); MIC E.coli in the presence of 4% bovine serum albumin [15]: 512 µg/mL; MIC E. faecium [16]: 16 µg/mL (≈ 22.6 µM); MIC E. faecium in the presence of 4% bovine serum albumin [16]: 256 µg/mL
CCCCCCCCCCCCCCCC(=O)N(CCCCNC(=N)N)CC(=O)N(CCCCNC(=N)N)CC(=O)N(CCCCNC(=N)N)CC(N)=O [C16-NhargNhargNharg] | 8 (≈ 10.4 µM) | 512 | 16 (≈ 20.9 µM) | 512 | 8 (≈ 10.4 µM) | 256 | 8 (≈ 10.4 µM) | 512 | 16 (≈ 20.9 µM) | 512 | 64 (≈ 83.5 µM) | 64 (≈ 83.5 µM) | >512 | 64 (≈ 83.5 µM) | >512 | 128 (≈ 167 µM) | >512 | 128 (≈ 167 µM) | >512 | 256 (≈ 334 µM) | MIC K.pneumoniae in the presence of 4% bovine serum albumin [11]: >512 µg/mL; Percent haemolysis at 100µg/mL of compound [12]: 30.80%; MIC E.coli [13]: 16 µg/mL (≈ 20.9 µM); MIC E.coli in the presence of 4% bovine serum albumin [13]: 512 µg/mL; MIC E.coli [14]: 32 µg/mL (≈ 41.8 µM); MIC E.coli in the presence of 4% bovine serum albumin [14]: 512 µg/mL; MIC E.coli [15]: 32 µg/mL (≈ 41.8 µM); MIC E.coli in the presence of 4% bovine serum albumin [15]: >512 µg/mL; MIC E. faecium [16]: 16 µg/mL (≈ 20.9 µM); MIC E. faecium in the presence of 4% bovine serum albumin [16]: 512 µg/mL
CCCCCCCCCCC(=O)N(CCCCNC(=N)N)CC(=O)NCC(=O)N(CCCCNC(=N)N)CC(N)=O [C11-NhargGNharg] | 128 (≈ 220 µM) | 512 | 128 (≈ 220 µM) | 512 | 128 (≈ 220 µM) | 256 | 128 (≈ 220 µM) | 512 | 256 (≈ 439 µM) | >512 | 512 (≈ 879 µM) | >512 | >512 | 512 (≈ 879 µM) | 512 | >512 | >512 | 512 (≈ 879 µM) | >512 | 512 (≈ 879 µM) | MIC S.pneumoniae in the presence of 4% bovine serum albumin [6]: >512 µg/mL; MIC K.pneumoniae in the presence of 4% bovine serum albumin [11]: 512 µg/mL; Percent haemolysis at 100µg/mL of compound [12]: 1.49%; MIC E.coli [13]: 512 µg/mL (≈ 879 µM); MIC E.coli in the presence of 4% bovine serum albumin [13]: 512 µg/mL; MIC E.coli [14]: 512 µg/mL (≈ 879 µM); MIC E.coli in the presence of 4% bovine serum albumin [14]: >512 µg/mL; MIC E.coli [15]: 512 µg/mL (≈ 879 µM); MIC E.coli in the presence of 4% bovine serum albumin [15]: >512 µg/mL; MIC E. faecium [16]: 256 µg/mL (≈ 439 µM); MIC E. faecium in the presence of 4% bovine serum albumin [16]: 512 µg/mL
